These results are taken from US9139589B2, “Heteroaryls and uses thereof” (Millennium Pharmaceuticals, Inc., priority 2009, dated 2015).

This experiment concerns the target T1, PI3Kalpha (Homo sapiens, UniProt P42336).
T1 construct: His (N); host or cells: SF9 insect cells (baculovirus co-infection)
The experiment is described as follows: PI3K enzyme HTRF assay (PI3Kalpha). The class given is biochemical. An excerpt: Active phosphatidylinositol 3′ kinase (PI3K) enzyme is purified at Millennium Pharmaceuticals from SF9 insect cells (Invitrogen) co-infected with baculovirus containing amino-terminal His-tagged p110α and p85α expression constructs.
The PI3K enzyme HTRF® assay makes use of an energy transfer complex comprised of biotin-PI(3,4,5)P3, Europhium labeled anti-GST monoclonal antibody, a GST-tagged GRP1 pleckstrin homology (PH) domain, and Streptavidin-APC (allophycocyanin). Excitation of the Europium in the complex results in a stable time-resolved fluorescence resonance energy transfer (FRET) signal. Phosphatidylinositol 3,4,5 triphosphate (PI(3,4,5)P3, the product of PI3K, disrupts the energy transfer complex by competing with biotin-PI(3,4,5)P3 for binding to the GRP1 PH domain, resulting in a decreased fluorescent signal. Inhibitors of PI3K in the reaction prevent a decrease in the fluorescent signal.
PI3K enzyme (325 pM) is incubated with di-C8 PI(4,5)P2 substrate (3.5 μM, CellSignals, Inc.) in assay buffer (50 mM HEPES pH 7.0, 5 mM DTT, 150 mM NaCl, 10 mM β-glycerophosphate, 5 mM MgCl2, 0.25 mM sodium cholate, 0.001% CHAPS) containing 25 μM ATP and 0.5 μL of test compound (in 100% DMSO) at multiple concentrations in a final volume of 20.5 μL in 384 well plates for 30 min at 22-23° C. […] Fluorescent signal for each well is then measured on an LJL_Analyst (Molecular Devices). […]

Molecules are shown by their SMILES.

T1 sequence (P42336 whole entry): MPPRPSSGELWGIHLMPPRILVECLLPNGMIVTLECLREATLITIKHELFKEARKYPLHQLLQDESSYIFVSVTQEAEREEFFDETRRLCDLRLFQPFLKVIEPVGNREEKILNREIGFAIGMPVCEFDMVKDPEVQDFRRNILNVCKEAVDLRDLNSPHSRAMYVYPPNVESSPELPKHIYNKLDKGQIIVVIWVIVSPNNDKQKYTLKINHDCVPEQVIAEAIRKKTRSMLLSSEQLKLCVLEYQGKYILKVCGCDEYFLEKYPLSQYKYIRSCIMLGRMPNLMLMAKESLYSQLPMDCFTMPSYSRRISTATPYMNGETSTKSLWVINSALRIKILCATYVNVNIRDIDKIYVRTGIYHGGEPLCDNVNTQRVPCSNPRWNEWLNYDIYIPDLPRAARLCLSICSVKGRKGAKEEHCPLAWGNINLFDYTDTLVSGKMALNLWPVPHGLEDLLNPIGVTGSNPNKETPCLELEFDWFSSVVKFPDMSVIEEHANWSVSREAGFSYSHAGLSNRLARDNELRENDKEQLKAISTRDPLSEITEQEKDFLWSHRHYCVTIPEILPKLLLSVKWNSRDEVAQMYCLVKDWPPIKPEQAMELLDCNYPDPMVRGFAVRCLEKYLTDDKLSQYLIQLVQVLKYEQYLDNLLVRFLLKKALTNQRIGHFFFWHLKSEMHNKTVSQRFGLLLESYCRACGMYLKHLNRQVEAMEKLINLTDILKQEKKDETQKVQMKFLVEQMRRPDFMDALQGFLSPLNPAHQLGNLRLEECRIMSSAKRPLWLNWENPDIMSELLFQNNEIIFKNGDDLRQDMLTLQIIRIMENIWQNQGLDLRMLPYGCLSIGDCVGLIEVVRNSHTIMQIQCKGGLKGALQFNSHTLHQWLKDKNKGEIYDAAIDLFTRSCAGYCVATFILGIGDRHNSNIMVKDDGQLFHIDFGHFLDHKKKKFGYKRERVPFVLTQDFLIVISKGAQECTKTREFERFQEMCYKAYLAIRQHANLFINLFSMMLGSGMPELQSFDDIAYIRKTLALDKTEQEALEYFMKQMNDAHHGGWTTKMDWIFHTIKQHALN
T1 sequence (P27986 whole entry partner): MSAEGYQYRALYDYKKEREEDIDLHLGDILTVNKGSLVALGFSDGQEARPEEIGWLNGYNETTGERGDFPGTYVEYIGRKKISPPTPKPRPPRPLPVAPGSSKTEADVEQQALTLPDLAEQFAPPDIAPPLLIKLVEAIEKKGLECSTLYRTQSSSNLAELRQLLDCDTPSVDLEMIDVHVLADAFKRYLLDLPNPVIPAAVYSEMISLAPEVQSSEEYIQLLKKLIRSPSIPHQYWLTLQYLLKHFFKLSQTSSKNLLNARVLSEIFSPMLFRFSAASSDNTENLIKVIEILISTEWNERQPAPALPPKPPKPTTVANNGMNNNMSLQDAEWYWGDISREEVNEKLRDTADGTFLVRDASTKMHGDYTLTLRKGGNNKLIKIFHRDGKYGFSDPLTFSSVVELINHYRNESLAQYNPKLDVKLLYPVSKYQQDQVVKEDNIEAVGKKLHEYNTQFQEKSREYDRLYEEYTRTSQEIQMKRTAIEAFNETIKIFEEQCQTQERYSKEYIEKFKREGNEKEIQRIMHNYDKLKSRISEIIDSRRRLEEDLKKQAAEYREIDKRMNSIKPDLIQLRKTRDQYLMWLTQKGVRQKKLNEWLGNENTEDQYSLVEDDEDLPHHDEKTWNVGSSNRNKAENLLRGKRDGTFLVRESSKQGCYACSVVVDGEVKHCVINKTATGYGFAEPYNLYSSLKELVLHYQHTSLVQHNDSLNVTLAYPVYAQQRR

The compound `CC(=O)Nc1cc(-c2nc(-c3ccccc3Cl)c(NC(C)=O)s2)ccn1` [Example C-1, N-{4-[5-(acetylamino)-4-(2-chlorophenyl)-1,3-thiazol-2-yl]pyridin-2-yl}acetamide] returned an IC50 of over 1 µM.
